Results as given in ChEMBL document CHEMBL3244295, “A ureido group containing analogue of oxytocin comprising eight amino acid residues” (J Med Chem, 1978).
Residues, ends and D or L forms follow the SMILES beside them.

Columns and labels:
[1] = Uterotonic activity in virgin rat uterus relative to oxytocin; assay type: functional
Rattus norvegicus = test: Antidiuretic activity in anesthetized rat assessed per mg; assay type: functional, Urine
[2] = Uterotonic activity in virgin rat uterus; assay type: functional
Oxytocin-like receptor = target: T1, Oxytocin-like receptor (Gallus gallus, UniProt Q5D7U5); test: Antagonist activity at oxytocin receptor in conscious chicken assessed as inhibition of oxytocin-induced vaspdepressor response; settings: read-out: pA2 (converted)
T1 sequence (Q5D7U5 whole entry): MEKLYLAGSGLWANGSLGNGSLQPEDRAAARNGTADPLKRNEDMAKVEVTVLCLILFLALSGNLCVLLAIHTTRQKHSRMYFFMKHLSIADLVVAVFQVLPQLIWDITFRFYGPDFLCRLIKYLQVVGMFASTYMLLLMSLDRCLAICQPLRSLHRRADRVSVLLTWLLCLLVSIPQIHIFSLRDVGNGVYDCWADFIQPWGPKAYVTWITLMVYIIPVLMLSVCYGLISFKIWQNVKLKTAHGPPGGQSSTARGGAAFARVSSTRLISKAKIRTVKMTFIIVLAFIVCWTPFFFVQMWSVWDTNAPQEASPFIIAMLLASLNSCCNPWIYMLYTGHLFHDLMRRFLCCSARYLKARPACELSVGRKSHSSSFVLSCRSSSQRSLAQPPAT

SMILES	Activity [1] [%]	Activity (Rattus norvegicus) [U]	Activity [2] [U/mg]	Kb (Oxytocin-like receptor) [nM]
[H][C@@]1([C@@H](C)CC)NC(=O)[C@H](Cc2ccc(O)cc2)NC(=O)NCCCC[C@@H](C(=O)N2CCC[C@H]2C(=O)N[C@@H](CC(C)C)C(=O)NCC(N)=O)NC(=O)[C@H](CC(N)=O)NC(=O)[C@H](CCC(N)=O)NC1=O (HELM PEPTIDE1{Y.I.Q.N.K.P.L.G.[am]}|CHEM1{[O=C([*:1])[*:2]]}$PEPTIDE1,CHEM1,1:R1-1:R1|PEPTIDE1,CHEM1,5:R3-1:R2$$$V2.0)	0.8	<0.05	3.9	53.7
CC[C@H](C)[C@@H]1NC(=O)[C@H](Cc2ccc(O)cc2)NC(=O)[C@@H](N)C(C)(C)SSC[C@@H](C(=O)N2CCC[C@H]2C(=O)N[C@@H](CC(C)C)C(=O)NCC(N)=O)NC(=O)[C@H](CC(N)=O)NC(=O)[C@H](CCC(N)=O)NC1=O	–	–	–	31.6
